Data as given in US6489299B2, “Methods for treatment of multiple sclerosis using peptide analogues at position 91 of human myelin basic protein” (Stanford University Medical Center, priority 1994, dated 2002).
Where two headings read alike, the source gives them in different places.

Legend:
[1] = system: IFN-γ production from draining lymph node cells; experiment: IFN-γ production by draining lymph node cells (ELISA); assay type: cell-based, rat; settings: all doses; supernatant after 48 hours; FIG. 7
Procedure: (§1) FIG. 7 are a pair of graphs showing the amount of IFN-γ and TNF-α production from draining lymph node cells (DLNC). DLNC were stimulated with MBP (87-99) alone (●) or with the peptide analogue (91K>A) (▪).
(§2) Cytokine production in draining lymph node cells from rats injected with MBP (87-99) alone or with the peptide analogue (91K>A) was determined. IFN-γ and TNF-α production were measured.
(§3) Draining lymph node cells (10^7 cells/ml) were stimulated in vitro with different concentrations of MBP (87-99) or peptide analogue. Supernatants were collected after 24 and 48 hours. IFN-γ was determined after 48 hours by use of a rat IFN-γ ELISA kit (GIBCO BRL). TNF-α was measured after 24 hours by ELISA kit (Genzyme Corp., Cambridge, Mass.).

[2] = system: TNF-α production from draining lymph node cells; experiment: TNF-α production by draining lymph node cells (ELISA); assay type: cell-based, rat; settings: all doses greater than 20 μM; supernatant after 24 hours; FIG. 7
Procedure: as §1, §2, §3

[3] = system: lymph node cells (LNC) reactive to MBP (87-99); experiment: Antigen-specific lymph node cell proliferation assay; assay type: cell-based, Lewis rat; settings: 10 μM peptide, 3 days, [3H]-thymidine; FIG. 4
Procedure: FIG. 4 is a graph displaying the proliferative response of MBP-reactive lymph node cells to position 91-substituted analogues. Two different substitutions were tested. The proliferative response of lymph node cells to 10 μM of MBP (87-99), motilin, A91 or K91 was determined. Proliferation is shown as counts per minute. BKG, no peptide added; 87-99, MBP (87-99); motilin, an unrelated peptide; A91, peptide analogue with alanine at position 91; K91, peptide analogue with D-lysine at position 91.
As an alternative to the use of T cell lines as described above, draining lymph node cells from Lewis rats immunized with MBP (87-99) may be used. […] Cultures are harvested on fiberglass filters and counted in a scintillation counter. Mean CPM and the standard error of the mean are calculated from data determined in triplicate cultures. […]
For the assay, 100 μl of the lymph node suspension was added to 96-well flat-bottom wells in the presence of an equal volume of medium containing 10 μM of various peptides (including: motilin as a negative control; MBP87-99; medium only, or alanine or D-amino acid substituted at position 91). […] The plates were then harvested with a Matrix filtermate harvester (Packard) and counted using an Automatic Direct Beta Counter (Packard). Mean cpm and the standard error of the mean were calculated from triplicate wells.

[4] = system: EAE; experiment: Prevention of EAE by co-injection of the peptide analogue with an EAE-inducing peptide; assay type: in vivo, rat
[5] = system: EAE; settings: rat, in vivo
Procedure: In addition, as a safety measure, but not essential to this invention, suitable peptide analogues may be tested for direct induction of EAE. As described in detail in Example 2, various amounts of peptide analogues are injected at the base of the tail of rats, and the rats examined daily for signs of EAE. A peptide analogue which is not considered to cause EAE has a mean cumulative score of less than or equal to 1 over seven days when 1 mg (5 mg/kg) in complete Freund's adjuvant is injected.
MBP peptides and analogues were dissolved in phosphate-buffered saline (PBS) and emulsified with an equal volume of incomplete Freund's adjuvant supplemented with 4 mg/ml heat-killed Mycobacterium tuberculosis H37Ra in oil (Difco Laboratories, Inc., Detroit, Mich.). Rats were immunized subcutaneously in the hind foot pads with 0.1 ml of the emulsion and were monitored for clinical signs daily by an observer blind to the treatment protocol. For intravenous injections MBP peptides and analogues were dissolved in normal saline. EAE was scored as follows: 0, clinically normal; 1, flaccid tail; 2, hind limb paralysis; 3, front and hind limb paralysis.
The ability of peptide analogues to cause EAE is assessed in vivo. Rats were injected with MBP (87-99) or (91K>A) peptide analogue as described in Example 2. Animals were monitored daily for evidence of EAE. Rats receiving MBP (87-99) had 100% incidence (18/18 rats) of EAE with a mean maximum clinical score of 2.4±0.2. In contrast, 0/12 rats receiving the peptide analogue (91k>A) had EAE.

[6] = system: EAE; experiment: Reversal of EAE induced by adoptive transfer of L87-99 T cells; assay type: in vivo, rat
[7] = system: anti MBP (87-99) T cell line L87-99; assay type: cell-based, rat; settings: all concentrations, 10^-4 μM to 10^-2 μM analogue; APC prepulsed with 0.2 μM native peptide; FIG. 5
Procedure: FIG. 5 is a graph illustrating the ability of alanine-substituted analogues to antagonize T cells. […] Results are shown as stimulation index ±SE.
The second or alternative assay is a competition assay for T cell proliferation. In this assay, antigen presenting spleen cells are first irradiated and then incubated with native MBP (87-99) peptide for 2-4 hours. These cells are then washed and further cultured with T cells reactive to MBP (87-99). Various concentrations of candidate peptide analogues are included in cultures for an additional 3 days. Following this incubation period, each culture is pulsed with 1 μCi of [^3H]-thymidine for an additional 12-18 hours. Cultures are then harvested on fiberglass filters and counted as above. Mean CPM and standard error of the mean are calculated from data determined in triplicate cultures. Peptide analogues which inhibit proliferation to approximately 25% at a concentration of 50 μM or greater are suitable for further screening.
T cell antagonism was detected in a prepulsed proliferation assay as described by De Magistris et al. (Cell […]:625, 1992) with minor modifications. […] The cultures were then harvested on fiberglass filters and the proliferative response expressed as CPM±SD or as stimulation index (mean CPM from test cultures divided by mean CPM from control cultures).

[8] = as Peptide 2, co-injected with Peptide 1 MBP(68-88), ratio 1:1
[9] = as Peptide 2, co-injected with Peptide 1 MBP(87-99), ratio 1:1, in complete Freund's adjuvant

CC[C@H](C)[C@H](NC(=O)[C@H](CC(N)=O)NC(=O)[C@H](C)NC(=O)[C@H](Cc1ccccc1)NC(=O)[C@H](Cc1ccccc1)NC(=O)[C@H](Cc1c[nH]cn1)NC(=O)[C@@H](N)C(C)C)C(=O)N[C@H](C(=O)N[C@H](C(=O)N1CCC[C@H]1C(=O)N[C@@H](CCCNC(=N)N)C(=O)N[C@H](C(=O)N1CCC[C@H]1C(=O)O)[C@@H](C)O)[C@@H](C)O)C(C)C [91K>A]
IFN-γ production (in words) [1]: marked decrease in cytokine production
TNF-α production (in words) [2]: marked decrease in cytokine production
proliferative response of MBP (87-99)-reactive lymph node cells (in words) [3]: failed to respond as well
EAE Incidence [4, 8]: 6/6
EAE Mean Maximum Clinical Score [4, 8]: 3 ± 0
EAE Incidence [4, 9]: 0/12
EAE Mean Maximum Clinical Score [4, 9]: 0
inhibition of induction of EAE by MBP (68-88) (in words) ([4]; co-immunization): not inhibit induction of EAE
inhibition of induction of EAE by MBP (87-99) (in words) ([4]; co-immunization): could specifically inhibit induction of EAE
EAE Incidence [5]: 0/12
EAE Mean Maximum Clinical Score [5]: 0
incidence of EAE (rats with EAE / rats injected) [5]: 0/12
time to complete remission ([6]; after single injection (2 mg/ml) of soluble analogue): ≤ 36 h
rats going into complete remission without further signs of paralysis ([6]; single injection (2 mg/ml) of soluble analogue to rats with hind limb paralysis, 5 days after 10^7 L87-99 T cells, p<0.015): six out of six
antagonism of the response of L87-99 to native peptide (in words) [7]: effectively antagonize
